Some test systems named below: DU-145 prostate; HS 578T breast; IGROV1 ovarian; LOX IMVI melanoma; NCI/ADR-RES ovarian; OVCAR-8 ovarian; SF-268 CNS; SF-295 CNS; SK-MEL-5 melanoma; SK-OV-3 ovarian; UACC-257 melanoma.
Common to all, as to test: NCI anticancer screen, dose series, 48 h

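Compound exposure: 48 hours, 5 concentrations, 96-well plates. TGI denotes the concentration required for complete inhibition of growth.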

`Cc1nc(C)c(N2CCN(C#N)CC2)c(=O)[nH]1`: the TGI in the assay with DU-145 prostate, in the assay with HS 578T breast, with IGROV1 ovarian, with LOX IMVI melanoma, in the assay with NCI/ADR-RES ovarian and with OVCAR-8 ovarian was over 100 µM throughout. The TGI in the assay on SF-268 CNS, in the assay on SF-295 CNS, with SK-MEL-5 melanoma, in the assay on SK-OV-3 ovarian and in the assay on UACC-257 melanoma was over 100 µM each time.
As for `CCOP(=O)(OCC)/C(C#N)=C/c1c(C)[nH]c2ccccc12`, the TGI with DU-145 prostate, with HS 578T breast, in the assay with IGROV1 ovarian, in the assay with LOX IMVI melanoma, with NCI/ADR-RES ovarian and in the assay on OVCAR-8 ovarian was over 100 µM in each case. The TGI with SF-268 CNS, with SF-295 CNS, with SK-MEL-5 melanoma, with SK-OV-3 ovarian and with UACC-257 melanoma was over 100 µM in each case.
With `COC(Cc1ccccc1)NC(C)=O` (configuration not stated), the TGI in the assay with DU-145 prostate, in the assay on HS 578T breast, with IGROV1 ovarian, in the assay with LOX IMVI melanoma, with NCI/ADR-RES ovarian and with OVCAR-8 ovarian was over 100 µM in each case. The TGI with SF-268 CNS, with SF-295 CNS, with SK-MEL-5 melanoma, in the assay on SK-OV-3 ovarian and in the assay on UACC-257 melanoma was over 100 µM each time.
Consider `COc1c(O)cc(C(=O)O[C@@H]2Cc3c(O)cc(O)cc3O[C@@H]2c2cc(O)c(O)c(O)c2)cc1O`, for which the TGI is 46.7 µM in the assay with DU-145 prostate; over 100 µM with HS 578T breast; over 100 µM in the assay on IGROV1 ovarian; 40.2 µM in the assay on LOX IMVI melanoma; over 100 µM in the assay with NCI/ADR-RES ovarian; 54.1 µM in the assay on OVCAR-8 ovarian. Besides, the TGI with SF-268 CNS was 46.7 µM; in the assay with SF-295 CNS, 46.2 µM; in the assay on SK-MEL-5 melanoma, 44.3 µM; in the assay on SK-OV-3 ovarian, over 100 µM; with UACC-257 melanoma it was over 100 µM.
Turning to `CC1(C)O[C@@H]2[C@@H]3OC(=O)C[C@@H]3[C@@H](COCc3ccccc3)[C@@H]2O1`, the TGI in the assay with DU-145 prostate, in the assay on HS 578T breast, with IGROV1 ovarian, with LOX IMVI melanoma, with NCI/ADR-RES ovarian and in the assay with OVCAR-8 ovarian was over 100 µM throughout. The TGI with SF-268 CNS, in the assay with SF-295 CNS, in the assay on SK-MEL-5 melanoma, in the assay on SK-OV-3 ovarian and with UACC-257 melanoma was over 100 µM each time.
On to `CCCCCC(/C=N/N)C(O)(C(F)(F)F)C(F)(F)F` (configuration not stated), for which the TGI was 6.09 µM in the assay on DU-145 prostate; 7.12 µM in the assay with HS 578T breast; over 10 µM in the assay with IGROV1 ovarian; 9.49 µM with LOX IMVI melanoma; over 10 µM in the assay on NCI/ADR-RES ovarian; over 10 µM in the assay on OVCAR-8 ovarian. Moreover, the TGI in the assay on SF-268 CNS is 5.92 µM; in the assay on SF-295 CNS, 8.6 µM; in the assay with SK-MEL-5 melanoma, 3.92 µM; with SK-OV-3 ovarian, over 10 µM; with UACC-257 melanoma, over 10 µM.
Consider `COc1cc(OC)nc(Nc2c(C#N)c3nc4ccccc4n3c3ccccc23)n1`, for which the TGI in the assay with DU-145 prostate, with HS 578T breast, in the assay with IGROV1 ovarian, in the assay with LOX IMVI melanoma, with NCI/ADR-RES ovarian and with OVCAR-8 ovarian was over 100 µM each time. The TGI in the assay on SF-268 CNS was over 100 µM; in the assay on SF-295 CNS, 53 µM; with SK-MEL-5 melanoma, over 100 µM; in the assay with SK-OV-3 ovarian it was over 100 µM; with UACC-257 melanoma it was over 100 µM.
As for `CP(C)(=S)P(C)(C)=S`, the TGI in the assay on DU-145 prostate, in the assay on HS 578T breast, with IGROV1 ovarian, in the assay on LOX IMVI melanoma, in the assay with NCI/ADR-RES ovarian and in the assay on OVCAR-8 ovarian was over 100 µM throughout. Besides, the TGI in the assay on SF-268 CNS, in the assay on SF-295 CNS, with SK-MEL-5 melanoma, in the assay on SK-OV-3 ovarian and in the assay on UACC-257 melanoma was over 100 µM in each case.
As to `O=C(/C(=C/c1cccs1)c1ccccc1)c1ccccc1`, the TGI in the assay with DU-145 prostate, with HS 578T breast, with IGROV1 ovarian, in the assay with LOX IMVI melanoma, in the assay on NCI/ADR-RES ovarian and with OVCAR-8 ovarian was over 100 µM each time. In addition, the TGI with SF-268 CNS, with SF-295 CNS, with SK-MEL-5 melanoma, in the assay with SK-OV-3 ovarian and in the assay with UACC-257 melanoma was over 100 µM throughout.
As to `O=C(O)c1cc(Sc2ccc([N+](=O)[O-])c(C(=O)O)c2)ccc1[N+](=O)[O-]`, the TGI in the assay with DU-145 prostate, in the assay on HS 578T breast, with IGROV1 ovarian, with LOX IMVI melanoma, in the assay on NCI/ADR-RES ovarian and in the assay with OVCAR-8 ovarian was over 100 µM in each case. Also, the TGI in the assay on SF-268 CNS, with SF-295 CNS, in the assay with SK-MEL-5 melanoma, in the assay on SK-OV-3 ovarian and in the assay with UACC-257 melanoma was over 100 µM each time.
In the case of `COC(=O)CCC(=O)c1ccc2c(c1)CC1(C2)Cc2ccc3c(c2C1)CCCC3=O` (configuration not stated), the TGI in the assay with DU-145 prostate, with HS 578T breast, in the assay with IGROV1 ovarian, in the assay with LOX IMVI melanoma, in the assay on NCI/ADR-RES ovarian and with OVCAR-8 ovarian was over 100 µM each time. For the same compound, the TGI is over 100 µM in the assay on SF-268 CNS; 79.3 µM in the assay on SF-295 CNS; 22.5 µM in the assay with SK-MEL-5 melanoma; over 100 µM in the assay on SK-OV-3 ovarian; 54.6 µM in the assay with UACC-257 melanoma.
As to `O=C1OC(c2ccccc2)N/C1=C\c1ccc2c(c1)OCO2` (configuration not stated), the TGI with DU-145 prostate, in the assay with HS 578T breast, in the assay with IGROV1 ovarian, in the assay with LOX IMVI melanoma, in the assay with NCI/ADR-RES ovarian and with OVCAR-8 ovarian was over 100 µM in each case. The TGI with SF-268 CNS, in the assay with SF-295 CNS, in the assay with SK-MEL-5 melanoma, in the assay with SK-OV-3 ovarian and with UACC-257 melanoma was over 100 µM throughout.

The values are drawn from PubChem BioAssay (NCI).
